Test results reported in ChEMBL document CHEMBL1201862, “PubChem BioAssay data set” (2004).
Activity calls are given as the source filed them.

Tests used:
[1] = biological target: T1, Carboxy-terminal domain RNA polymerase II polypeptide A small phosphatase 1 (Homo sapiens, UniProt Q9GZU7); experiment: CTDSP1 inhibitors, concentration-response, biochemical, absorbance readout, ultra-high-throughput screen actives (AID 540297); type: functional
T1 sequence (Q9GZU7 whole entry): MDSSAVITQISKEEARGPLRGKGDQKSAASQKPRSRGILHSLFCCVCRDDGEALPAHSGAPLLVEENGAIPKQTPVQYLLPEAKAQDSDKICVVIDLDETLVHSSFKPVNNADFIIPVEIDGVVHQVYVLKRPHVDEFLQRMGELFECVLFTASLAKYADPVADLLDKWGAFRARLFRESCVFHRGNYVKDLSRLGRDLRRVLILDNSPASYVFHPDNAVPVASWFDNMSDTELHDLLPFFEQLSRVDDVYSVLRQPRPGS

Estrogen receptor beta = Estrogen receptor beta (Homo sapiens, UniProt Q92731);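 also: recombinant ER-beta bound to coactivator SRC1 peptide in presence of estradiol agonist; inhibitors block coactivator peptide binding and lower the FRET signal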
[2] = biological target: DNA dC->dU-editing enzyme APOBEC-3G (Homo sapiens, UniProt Q9HC16); type: functional;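 also: Dose-response counterscreen measuring inhibition of APOBEC3G DNA deaminase activity, run while confirming APOBEC3A inhibitors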
[3] = biological target: DNA dC->dU-editing enzyme APOBEC-3A (Homo sapiens, UniProt P31941); experiment: Dose Response confirmation of small molecule APOBEC3A DNA Deaminase Inhibitors via a fluorescence-based single-stranded DNA deaminase assay. [Related pubchem assays (depositor defined):AID493011, AID493024]; type: functional
HEK293 [4] = experiment: cells; type: functional, cell-based; settings: Homo sapiens
[5] = biological target: Beta-2 adrenergic receptor (Homo sapiens, UniProt P07550); experiment: ADRB2 activation measured by internalization – cell-based, FAP fluorogen, flow cytometry, cherry pick 1, dose response (AID 588763); type: functional
[6] = cAMP pathway inhibition in counterscreen cell line – TR-FRET cAMP detection, counter-screen for MC4R biased antagonist project, dose response (AID 602305); type: functional, cell-based;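 also: U2OS cells stimulated with forskolin near its EC80 as the cAMP inducer; potency is for inhibition of forskolin-stimulated cAMP signaling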
HEK293 [7] = experiment: NOD2 signaling inhibitors in MDP-stimulated cells, cell-based, uHTS, luminescence (AID 2001); type: functional; settings: Homo sapiens
HEK293 [8] = experiment: cells; type: functional, cell-based; settings: Homo sapiens; remark: listed apart in the source
HEK293 [9] = experiment: cells; type: functional, cell-based; settings: Homo sapiens; remark: listed apart in the source
Melanocortin receptor 4 = Melanocortin receptor 4 (Homo sapiens, UniProt P32245); experiment: inhibitors of MC4R cAMP signaling – cell-based, TR-FRET, biased antagonists, dose response (AID 602298); type: functional;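 also: antagonist potency against agonist-stimulated cAMP production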
BJ [10] = experiment: BJ-TERT fibroblast viability loss – cell-based, RAS-independent, luminescence, dose response (AID 1933); type: functional; settings: Homo sapiens
BJ [11] = experiment: cells; type: functional, cell-based; settings: Homo sapiens
BJ [12] = experiment: BJ-TERT-LT-ST fibroblast viability loss – cell-based, RAS-independent, luminescence, dose response (AID 1935); type: functional; settings: Homo sapiens;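 also: BJ fibroblasts immortalized with TERT plus LT and ST oncogenes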
[13] = biological target: E3 ubiquitin-protein ligase Mdm2 (Homo sapiens, UniProt Q00987); experiment: MDM2-luc reporter signal enhancers, multi-concentration potency testing, MDM2 ubiquitin-protein ligase inhibitor program, whole-cell format, luminescence detection, 384-well microplate (AID 1394); type: functional;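 also: MDM2 E3 inhibitors raise luminescence so EC50 is for signal enhancement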
[14] = DRD fibroblast viability loss – cell-based, non-viral oncogenic, luminescence, dose response (AID 1934); type: functional; settings: Homo sapiens
[15] = biological target: Nucleotide-binding oligomerization domain-containing protein 2 (Homo sapiens, UniProt Q9HC29); experiment: inhibition of NOD2-driven NF-kB reporter – cell-based, luminescence, uHTS, HEK293 (AID 1566); type: functional
HEK293 [16] = experiment: inhibition of NOD1-driven NF-kB reporter – cell-based, luminescence, uHTS, primary screen (AID 1578); type: functional; settings: Homo sapiens
Ephrin type-A receptor 4 = Ephrin type-A receptor 4 (Mus musculus, UniProt Q03137); experiment: EphA4 ligand-binding antagonists – biochemical, colorimetric, mouse EphA4, primary screen (AID 689); type: functional
[17] = microbe, parasite or virus in culture; type: functional; settings: Mycobacterium tuberculosis
[18] = viability of HCT116 lacking mutant beta-catenin – cell-based, human colon tumor, dose response (AID 1045); type: functional;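 also: HCT116 colon tumor cells with beta catenin knocked out; cells exposed to compound for 60 hours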
[19] = biological target: Heat shock protein HSP 90-alpha (Homo sapiens, UniProt P07900); type: functional, organism-based
[20] = viability of PTEN-deleted HCT116 cells – cell-based, HCT116 PTEN knockout, dose response (AID 1047); type: functional;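 also: HCT116 colon tumor cells with PTEN knocked out; cells exposed to compound for 60 hours before readout; potency for loss of cell viability measured by luminescence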
Cytochrome P450 2D6 = Cytochrome P450 2D6 (Homo sapiens, UniProt P10635);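 also: CYP2D6 member of a cytochrome P450 panel assay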
[21] = Luminescence Cell-Based Dose Confirmation HTS to Identify Inhibitors of Platelet Dense Granule Release. [Related pubchem assays: 1663 (Primary HTS), 1678 (Summary of Project)]; type: functional
[22] = Fluorescence Cell-Based Dose Response to Identify Inhibitors of Thrombin Receptor-Activating Peptide SFLLRN-Mediated P-Selectin Induction on Platelets. [Related pubchem assays: 1663 (Primary HTS), 1889 (retest at dose ), 1891 (counterscreen), 1678 (Project Summary)]; type: functional
[23] = biological target: Luciferin 4-monooxygenase (Photinus pyralis, UniProt P08659); experiment: inhibition of purified Photinus pyralis luciferase – biochemical, luminescence, dose response (AID 1891)
Cytochrome P450 2C19 = Cytochrome P450 2C19 (Homo sapiens, UniProt P33261); experiment: qHTS Assay for Inhibitors and Substrates of Cytochrome P450 2C19. [Related pubchem assays: 410 ]; type: ADME; settings: read-out: Potency
Cytochrome P450 3A4 = Cytochrome P450 3A4 (Homo sapiens, UniProt P08684); settings: Potency;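 also: confirmatory qHTS run detecting inhibitors and substrates of CYP3A4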
[24] = cytotoxicity toward HT-29 cells – cell-based, CellTiter-Glo luminescence, IC50, dose response (AID 1117330); type: functional
[25] = CellTiter-Glo luminescence survival assay, SW480 colon tumor line, concentration-response curve, half-maximal inhibitory concentration (AID 1117338); type: functional
[26] = cytotoxicity toward HCT116 cells – cell-based, CellTiter-Glo luminescence, IC50, dose response (AID 1117332); type: functional; settings: HCT-116
[27] = glucagon-like peptide-1 release potency in STC-1, concentration-response, half-maximal inhibitory concentration in the STC-1 line (AID 1117345); type: functional, cell-based
[28] = RKO cell viability reduction, dose response, CellTiter-Glo luminescence (AID 1117322); type: functional
[29] = cytotoxicity toward Colo320 cells – cell-based, CellTiter-Glo luminescence, IC50, dose response (AID 1117334); type: functional; settings: COLO 320
[30] = Potency on glucagon-like peptide 1 release, dose-response in NCI-H716 cell line, half maximal inhibitory concentration (AID 1117344); type: functional, cell-based
[31] = HCT116 cell viability decrease, GSK3B pretreatment – CellTiter-Glo, IC50, dose response (AID 1117339); type: functional; settings: HCT-116

Luciferin 4-monooxygenase, sequence (P08659 whole entry): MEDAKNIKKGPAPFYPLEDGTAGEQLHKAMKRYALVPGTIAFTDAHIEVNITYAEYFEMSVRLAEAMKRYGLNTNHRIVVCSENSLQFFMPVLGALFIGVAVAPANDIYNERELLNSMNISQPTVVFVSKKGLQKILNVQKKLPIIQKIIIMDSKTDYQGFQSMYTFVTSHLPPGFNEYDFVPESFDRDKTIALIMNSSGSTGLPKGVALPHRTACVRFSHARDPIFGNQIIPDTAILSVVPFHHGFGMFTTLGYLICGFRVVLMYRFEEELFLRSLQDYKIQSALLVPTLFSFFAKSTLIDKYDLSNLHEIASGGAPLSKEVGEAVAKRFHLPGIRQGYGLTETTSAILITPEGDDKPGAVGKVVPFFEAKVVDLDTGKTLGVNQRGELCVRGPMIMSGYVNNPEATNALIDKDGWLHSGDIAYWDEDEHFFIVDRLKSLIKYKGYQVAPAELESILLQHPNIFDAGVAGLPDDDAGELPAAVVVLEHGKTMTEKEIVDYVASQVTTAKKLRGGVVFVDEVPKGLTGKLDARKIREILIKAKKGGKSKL
DNA dC->dU-editing enzyme APOBEC-3G, sequence (Q9HC16 whole entry): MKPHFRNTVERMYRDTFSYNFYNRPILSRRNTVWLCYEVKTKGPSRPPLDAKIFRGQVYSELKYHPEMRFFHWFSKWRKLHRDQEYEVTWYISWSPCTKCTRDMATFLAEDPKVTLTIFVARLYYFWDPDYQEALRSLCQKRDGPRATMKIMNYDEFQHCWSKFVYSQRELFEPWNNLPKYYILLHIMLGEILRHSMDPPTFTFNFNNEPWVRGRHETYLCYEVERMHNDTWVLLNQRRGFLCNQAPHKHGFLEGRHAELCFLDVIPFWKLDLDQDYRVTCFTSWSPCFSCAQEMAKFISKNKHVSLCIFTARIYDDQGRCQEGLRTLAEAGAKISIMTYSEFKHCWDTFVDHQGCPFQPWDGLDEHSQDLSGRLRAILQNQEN
Estrogen receptor beta, sequence (Q92731 whole entry): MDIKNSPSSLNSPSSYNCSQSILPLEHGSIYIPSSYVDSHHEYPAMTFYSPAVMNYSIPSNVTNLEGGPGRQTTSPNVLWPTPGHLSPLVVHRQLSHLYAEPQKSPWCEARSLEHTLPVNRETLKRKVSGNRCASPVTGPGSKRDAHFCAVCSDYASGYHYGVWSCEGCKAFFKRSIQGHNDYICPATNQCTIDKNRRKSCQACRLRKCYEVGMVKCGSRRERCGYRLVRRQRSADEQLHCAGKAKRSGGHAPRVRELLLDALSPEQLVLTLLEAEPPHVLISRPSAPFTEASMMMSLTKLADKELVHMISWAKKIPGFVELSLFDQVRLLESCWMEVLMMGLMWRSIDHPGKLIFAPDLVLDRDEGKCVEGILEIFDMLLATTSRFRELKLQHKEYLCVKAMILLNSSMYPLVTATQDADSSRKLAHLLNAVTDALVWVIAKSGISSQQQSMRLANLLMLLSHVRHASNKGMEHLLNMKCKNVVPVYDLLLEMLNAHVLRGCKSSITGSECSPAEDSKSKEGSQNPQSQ
Melanocortin receptor 4, sequence (P32245 whole entry): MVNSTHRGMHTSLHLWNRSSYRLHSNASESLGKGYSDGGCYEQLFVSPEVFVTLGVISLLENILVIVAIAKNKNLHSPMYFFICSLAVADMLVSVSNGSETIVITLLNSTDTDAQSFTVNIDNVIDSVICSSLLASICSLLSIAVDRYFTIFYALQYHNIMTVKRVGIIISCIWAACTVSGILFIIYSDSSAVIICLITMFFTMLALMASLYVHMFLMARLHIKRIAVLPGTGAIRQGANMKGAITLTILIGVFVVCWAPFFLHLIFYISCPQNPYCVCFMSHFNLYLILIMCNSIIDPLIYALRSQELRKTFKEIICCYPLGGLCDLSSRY
Cytochrome P450 3A4, sequence (P08684 whole entry): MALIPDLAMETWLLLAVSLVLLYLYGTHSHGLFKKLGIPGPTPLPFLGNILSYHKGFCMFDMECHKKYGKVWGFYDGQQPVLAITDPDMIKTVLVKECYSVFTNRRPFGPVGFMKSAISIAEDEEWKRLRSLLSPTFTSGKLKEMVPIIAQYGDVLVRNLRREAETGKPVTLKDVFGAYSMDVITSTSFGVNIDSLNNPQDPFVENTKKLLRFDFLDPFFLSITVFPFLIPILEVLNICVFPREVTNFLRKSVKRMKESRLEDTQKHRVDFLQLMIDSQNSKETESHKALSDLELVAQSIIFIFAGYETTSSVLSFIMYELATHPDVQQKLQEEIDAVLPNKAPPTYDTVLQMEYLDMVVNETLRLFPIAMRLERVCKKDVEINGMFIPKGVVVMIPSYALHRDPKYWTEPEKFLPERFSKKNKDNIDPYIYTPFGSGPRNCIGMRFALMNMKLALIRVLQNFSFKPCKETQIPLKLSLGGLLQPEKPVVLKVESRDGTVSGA
Nucleotide-binding oligomerization domain-containing protein 2, sequence (Q9HC29 whole entry, the tested form may be a part): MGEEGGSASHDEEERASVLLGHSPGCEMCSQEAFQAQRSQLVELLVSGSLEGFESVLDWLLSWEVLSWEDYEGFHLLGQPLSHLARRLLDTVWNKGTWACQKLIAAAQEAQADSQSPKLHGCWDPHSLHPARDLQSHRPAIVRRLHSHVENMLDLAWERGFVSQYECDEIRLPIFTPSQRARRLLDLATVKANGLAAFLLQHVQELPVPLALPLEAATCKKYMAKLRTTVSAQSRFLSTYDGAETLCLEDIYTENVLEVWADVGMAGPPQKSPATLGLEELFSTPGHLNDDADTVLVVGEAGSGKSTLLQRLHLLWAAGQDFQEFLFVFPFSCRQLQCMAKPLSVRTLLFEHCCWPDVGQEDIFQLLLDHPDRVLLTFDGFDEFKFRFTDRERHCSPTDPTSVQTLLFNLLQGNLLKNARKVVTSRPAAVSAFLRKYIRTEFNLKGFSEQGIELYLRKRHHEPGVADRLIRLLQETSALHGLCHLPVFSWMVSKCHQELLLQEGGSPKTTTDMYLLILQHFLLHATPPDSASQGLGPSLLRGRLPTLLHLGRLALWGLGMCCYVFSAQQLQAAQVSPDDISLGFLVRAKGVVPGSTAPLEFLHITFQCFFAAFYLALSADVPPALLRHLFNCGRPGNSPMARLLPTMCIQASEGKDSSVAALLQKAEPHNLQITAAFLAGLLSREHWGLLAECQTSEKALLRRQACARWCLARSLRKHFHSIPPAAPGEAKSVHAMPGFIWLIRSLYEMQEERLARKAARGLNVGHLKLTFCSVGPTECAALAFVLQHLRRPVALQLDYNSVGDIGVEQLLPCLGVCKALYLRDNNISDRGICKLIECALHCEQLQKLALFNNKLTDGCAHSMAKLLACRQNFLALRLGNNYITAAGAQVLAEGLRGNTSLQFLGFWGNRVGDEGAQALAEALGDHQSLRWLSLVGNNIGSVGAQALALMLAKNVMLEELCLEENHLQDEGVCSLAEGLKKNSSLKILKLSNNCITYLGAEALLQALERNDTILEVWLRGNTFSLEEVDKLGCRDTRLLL
DNA dC->dU-editing enzyme APOBEC-3A, sequence (P31941 whole entry): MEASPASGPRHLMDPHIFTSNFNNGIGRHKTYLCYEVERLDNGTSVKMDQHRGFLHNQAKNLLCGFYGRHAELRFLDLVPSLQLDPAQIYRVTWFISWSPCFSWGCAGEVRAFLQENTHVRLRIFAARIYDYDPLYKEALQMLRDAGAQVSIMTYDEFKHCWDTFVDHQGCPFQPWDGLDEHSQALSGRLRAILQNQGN
E3 ubiquitin-protein ligase Mdm2, sequence (Q00987 whole entry): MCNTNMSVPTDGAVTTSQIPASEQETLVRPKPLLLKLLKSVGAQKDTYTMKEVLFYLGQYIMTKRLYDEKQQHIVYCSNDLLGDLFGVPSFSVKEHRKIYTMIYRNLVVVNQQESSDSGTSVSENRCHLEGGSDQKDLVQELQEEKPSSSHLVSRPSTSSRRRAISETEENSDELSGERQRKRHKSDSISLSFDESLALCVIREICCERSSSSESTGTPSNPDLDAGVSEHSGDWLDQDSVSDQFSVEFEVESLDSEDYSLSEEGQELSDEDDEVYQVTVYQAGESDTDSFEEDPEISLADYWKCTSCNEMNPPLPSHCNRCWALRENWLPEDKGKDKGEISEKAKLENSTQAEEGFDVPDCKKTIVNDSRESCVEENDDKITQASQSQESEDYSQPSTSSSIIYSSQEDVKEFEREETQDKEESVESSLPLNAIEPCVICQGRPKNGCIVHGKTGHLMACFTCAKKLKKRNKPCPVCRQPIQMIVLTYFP
Beta-2 adrenergic receptor, sequence (P07550 whole entry): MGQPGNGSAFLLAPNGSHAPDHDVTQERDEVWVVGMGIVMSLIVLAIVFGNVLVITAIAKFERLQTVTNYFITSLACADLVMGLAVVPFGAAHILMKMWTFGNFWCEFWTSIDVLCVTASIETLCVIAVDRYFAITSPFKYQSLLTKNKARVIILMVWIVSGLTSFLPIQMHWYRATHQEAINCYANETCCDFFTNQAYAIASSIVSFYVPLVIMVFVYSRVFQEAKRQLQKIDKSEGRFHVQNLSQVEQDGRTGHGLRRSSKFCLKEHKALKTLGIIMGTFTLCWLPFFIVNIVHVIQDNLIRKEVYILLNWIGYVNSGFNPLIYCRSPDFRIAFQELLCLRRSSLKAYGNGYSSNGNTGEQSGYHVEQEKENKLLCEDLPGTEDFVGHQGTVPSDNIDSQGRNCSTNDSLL
Cytochrome P450 2D6, sequence (P10635 whole entry): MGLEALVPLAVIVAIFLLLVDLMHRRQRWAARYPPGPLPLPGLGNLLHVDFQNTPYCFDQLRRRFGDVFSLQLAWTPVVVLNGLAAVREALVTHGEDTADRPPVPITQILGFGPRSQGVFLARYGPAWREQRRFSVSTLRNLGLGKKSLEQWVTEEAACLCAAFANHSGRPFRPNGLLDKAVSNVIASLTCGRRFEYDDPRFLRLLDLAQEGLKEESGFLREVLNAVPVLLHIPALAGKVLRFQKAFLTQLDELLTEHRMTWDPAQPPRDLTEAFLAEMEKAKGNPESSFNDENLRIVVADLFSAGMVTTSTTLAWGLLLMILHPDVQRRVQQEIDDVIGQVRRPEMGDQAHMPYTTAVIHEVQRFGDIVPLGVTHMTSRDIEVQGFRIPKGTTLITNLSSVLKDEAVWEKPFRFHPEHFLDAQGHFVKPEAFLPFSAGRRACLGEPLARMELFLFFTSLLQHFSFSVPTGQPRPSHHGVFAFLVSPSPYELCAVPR

## CCCCCCNC(=O)c1cc(-c2ccco2)nc2ccccc12
[1]
  IC50: 5.1 µM (active)
Estrogen receptor beta
  IC50: 2.6 µM (active)
[2]
  IC50: 16 µM (active)
[3]
  IC50: 13.6 µM (active)

## O=C(COC(=O)c1ccccc1C(=O)c1ccc(Cl)c([N+](=O)[O-])c1)NC1CCCCCC1
HEK293 [4]
  IC50: 1.9 µM (active)
[5]
  EC50: 42.3 µM (inactive)
[6]
  IC50: > 64.6 µM (inactive)
HEK293 [7]
  IC50: 3.13 µM (active)
HEK293 [8]
  IC50: 18.3 µM (active)
HEK293 [9]
  IC50: > 20 µM (inactive)
Melanocortin receptor 4
  IC50: 26.6 µM (inactive)
BJ [10]
  EC50: 4.41 µM (active)
BJ [11]
  EC50: 9.86 µM (inconclusive)
BJ [12]
  EC50: 4.91 µM (inconclusive)
[13]
  EC50: 12.4 µM (not active)
[14]
  EC50: 4.47 µM (active)
[15]
  EC50: > 20 µM (inactive)
HEK293 [16]
  EC50: 3.78 µM (active)

## O=[N+]([O-])/C=C/c1cn(Cc2ccccc2)c2ccccc12
Ephrin type-A receptor 4
  IC50: 2.3 µM (active)
[17]
  CC50: > 40 µM (active)
[18]
  EC50: 13.2 µM (active)
[19]
  AC50: 6.43 µM (active)
[20]
  EC50: 15.8 µM (active)
Cytochrome P450 2D6
  AC50: 15.8 µM (inconclusive)

## CCS(=O)(=O)Nc1ccc(-c2nnc(SCC(=O)OC)o2)cc1
[21]
  EC50: 6.33 µM (active)
[22]
  EC50: < 30 µM (active)
[23]
  EC50: > 112 µM (not active)

## CC1CCC2C(=O)N3C(CCC(C)[C@@H]3c3ccc(Br)cc3)C(=O)N2C1c1ccc(Br)cc1 (some centres not stated)
Cytochrome P450 2C19
  AC50: 3.98 µM (inconclusive)
Cytochrome P450 3A4
  AC50: 5.01 µM (inconclusive)

## Oc1ccc(Cl)cc1Cc1ccccc1 [CLOROPHENE]
[24]
  IC50: > 20 µM (inactive)
[25]
  IC50: > 20 µM (inactive)
[26]
  IC50: > 20 µM (inactive)
[27]
  IC50: 7.62 µM (inactive)
[28]
  IC50: > 20 µM (inactive)
[29]
  IC50: 13 µM (inactive)
[30]
  IC50: 33.8 µM (inactive)
[31]
  IC50: > 6.67 µM (inactive)
